Measured values as given in patent publication US9855204B1, “Methods and compositions for treating androgenetic alopecia” (priority 2015, dated 2018).

Tests used:
[1] = test system: Androgenic Alopecia Females; experiment: Androgenic Alopecia Females, Global Photographic Assessment (Omnia System); assay type: in vivo, human; details: 2 mg daily, 6 months, 15 treated
Excerpt: (§1) The description of the experiments and their results are presented in the 4 tables below. In these experiments the subjects self-administered CEP for at least 6 months.

androgenetic alopecia = experiment: CEP in subjects with androgenetic alopecia, overall findings of the experiments; assay type: in vivo, human; details: inferred from benefit in users who skipped daily doses
Excerpt: It is effective when dosed once daily or even once every other day, both of which make compliance much easier than dividing the doses into greater frequency. It is effective without regard to consumption following meals.
as §1
Some users were not perfectly compliant, sometimes skipping their daily doses. […] The expected effective dose range is from about 0.5 mg per day to about 100 mg per day.

[2] = test system: Androgenetic Alopecia Males; experiment: Androgenetic Alopecia Males Arm 1, Global Photographic Assessment (Omnia System); assay type: in vivo, human; details: 2 mg once daily, 6 months, 20 treated
Excerpt: as §1

[3] = test system: Androgenetic Alopecia Males; experiment: Androgenetic Alopecia Males Arm 2, Global Photographic Assessment (Omnia System); assay type: in vivo, human; details: 2 mg once every other day, 6 months, 20 treated
Excerpt: as §1

[4] = prior medical use of CEP; cited from earlier work
DHT levels = details: 1 mg dose taken daily; cited from earlier work
male pattern baldness = details: cited from earlier work

COc1ccc2cc1Oc1ccc(cc1)C[C@H]1c3c(cc4c(c3Oc3cc5c(cc3OC)CCN(C)[C@@H]5C2)OCO4)CCN1C [Cepharanthine]
number of subjects with score Greatly decreased [1]: 0 | number of subjects with score Greatly increased [1]: 1 | number of subjects with score Moderately decreased [1]: 0 | number of subjects with score Moderately increased [1]: 2 | number of subjects with score No change [1]: 3 | number of subjects with score Slightly decreased [1]: 1 | number of subjects with score Slightly increased [1]: 8 | effective dose (androgenetic alopecia): about 0.5 mg CEP a day | number of subjects with score Greatly decreased [2]: 0 | number of subjects with score Greatly increased [2]: 1 | number of subjects with score Moderately decreased [2]: 0 | number of subjects with score Moderately increased [2]: 7 | number of subjects with score No change [2]: 3 | number of subjects with score Slightly decreased [2]: 1 | number of subjects with score Slightly increased [2]: 8 | number of subjects with score Greatly decreased [3]: 0 | number of subjects with score Greatly increased [3]: 0 | number of subjects with score Moderately decreased [3]: 0 | number of subjects with score Moderately increased [3]: 5 | number of subjects with score No change [3]: 4 | number of subjects with score Slightly decreased [3]: 2 | number of subjects with score Slightly increased [3]: 9 | safety issues [4]: No safety issues have been observed | side effects [4]: very rarely reported

CC(C)(C)NC(=O)[C@H]1CC[C@H]2[C@@H]3CC[C@H]4NC(=O)C=C[C@]4(C)[C@H]3CC[C@]12C [finasteride, Finasteride]
lowering of DHT levels (DHT levels): ≤ 60% | trial participants with substantial increase in hair growth (male pattern baldness; clinical trials, men): 65% | men in whom progression of hair loss stopped (male pattern baldness; men taking the drug during clinical trials): 86% | men experiencing transient sexual side effects including erectile and libido difficulties (male pattern baldness; men): Less than 2%
